Results from paper PMC11876601 (Molecular Systems Biology, 2025).
Read-outs that look alike come from different tables or passages of the source.

What was measured:
[1] = test system: TNK1; conditions: cited from earlier work
[2] = test system: PKN2; conditions: cited from earlier work
[3] = test system: Q6ZSR9; conditions: cited from earlier work
[4] = test system: FLT3; conditions: cited from earlier work
[5] = test system: AURKA; conditions: cited from earlier work
[6] = test system: ERN1; conditions: cited from earlier work
[7] = test system: SIK2; conditions: cited from earlier work
[8] = test system: PKN1; conditions: cited from earlier work
[9] = test system: AAK1; conditions: cited from earlier work
[10] = test system: LATS1; conditions: cited from earlier work
[11] = test system: PRKD3; conditions: cited from earlier work
[12] = test system: PLK4; conditions: cited from earlier work
[13] = test system: FER; conditions: cited from earlier work
[14] = test system: TNK2; conditions: cited from earlier work
[15] = test system: STK10; conditions: cited from earlier work
[16] = test system: PRKD2; conditions: cited from earlier work
[17] = test system: PaTu-8988-T; experiment: cells; parameters: ATPlite luminescence viability of PDAC cell lines, 11-dose single-agent curves, 4-parameter fit; conditions: Homo sapiens, PaTu 8988t, 72 h, read-out: EC50 [nM]
In short: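 Drug-combination screening used cells plated at 1000 to 5000 per well one day before treatment. Final DMSO was 0.2%. Each plate held untreated negative-control wells and 5 µM staurosporine positive-control wells.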

[18] = test system: CHEK1; conditions: cited from earlier work; for Kd: read-out: KDapp
[19] = test system: IRAK4; conditions: cited from earlier work
[20] = test system: RPS6KA4; conditions: cited from earlier work
[21] = 4 cell line mix lysate, Kinobeads y, ref Klaeger et al. (2017)
[22] = TNK1, 5 cell line mix lysate, Kinobeads ε, ref Reinecke et al. (2023)
[23] = PKN2, 5 cell line mix lysate, Kinobeads ε, ref Reinecke et al. (2023)
[24] = Q6ZSR9, 5 cell line mix lysate, Kinobeads ε, ref Reinecke et al. (2023)
[25] = FLT3, 5 cell line mix lysate, Kinobeads ε, ref Reinecke et al. (2023)
[26] = 5 cell line mix lysate, Kinobeads ε, ref Reinecke et al. (2023)
[27] = ERN1, 5 cell line mix lysate, Kinobeads ε, ref Reinecke et al. (2023)
[28] = SIK2, 5 cell line mix lysate, Kinobeads ε, ref Reinecke et al. (2023)
[29] = PKN1, 5 cell line mix lysate, Kinobeads ε, ref Reinecke et al. (2023)
[30] = AAK1, 5 cell line mix lysate, Kinobeads ε, ref Reinecke et al. (2023)
[31] = LATS1, 5 cell line mix lysate, Kinobeads ε, ref Reinecke et al. (2023)
[32] = PRKD3, 5 cell line mix lysate, Kinobeads ε, ref Reinecke et al. (2023)
[33] = PLK4, 5 cell line mix lysate, Kinobeads ε, ref Reinecke et al. (2023)
[34] = TNK2, 5 cell line mix lysate, Kinobeads ε, ref Reinecke et al. (2023)
[35] = STK10, 5 cell line mix lysate, Kinobeads ε, ref Reinecke et al. (2023)
[36] = PRKD2, 5 cell line mix lysate, Kinobeads ε, ref Reinecke et al. (2023)
[37] = CHEK1, 5 cell line mix lysate, Kinobeads ε, ref Reinecke et al. (2023)
[38] = IRAK4, 5 cell line mix lysate, Kinobeads ε, ref Reinecke et al. (2023)
[39] = RPS6KA4, 5 cell line mix lysate, Kinobeads ε, ref Reinecke et al. (2023)

C[C@]12O[C@H](C[C@]1(O)CO)n1c3ccccc3c3c4c(c5c6ccccc6n2c5c31)CNC4=O [Lestaurtinib]
EC50 ([3]; Q6ZSR9, 4 cell line mix lysate, Kinobeads y, ref Klaeger et al. (2017)): 105 nM
EC50 [17]: 407 nM

CCN1CCN(Cc2ccc(Nc3ncc(F)c(-c4cc(F)c5nc(C)n(C(C)C)c5c4)n3)nc2)CC1 [Abemaciclib]
EC50 [17]: 2850 nM

COc1cc(N2CCC(N3CCN(C)CC3)CC2)ccc1Nc1ncc(Cl)c(Nc2ccccc2P(C)(C)=O)n1 [Brigatinib]
EC50 [1, 22]: 1.59 nM
pKDapp [1, 22]: 9.16
Kd ([1]; TNK1, 5 cell line mix lysate, Kinobeads ε, ref Reinecke et al. (2023), read-out: KDapp): 0.69 nM
EC50 [2, 23]: 1040 nM
pKDapp [2, 23]: 6.07
Kd ([2]; PKN2, 5 cell line mix lysate, Kinobeads ε, ref Reinecke et al. (2023), read-out: KDapp): 852 nM
EC50 [3, 24]: 296 nM
pKDapp [3, 24]: 6.65
Kd ([3]; Q6ZSR9, 5 cell line mix lysate, Kinobeads ε, ref Reinecke et al. (2023), read-out: KDapp): 225 nM
EC50 [4, 25]: 142 nM
pKDapp [4, 25]: 7.12
Kd ([4]; FLT3, 5 cell line mix lysate, Kinobeads ε, ref Reinecke et al. (2023), read-out: KDapp): 76.3 nM
Kd ([5]; 5 cell line mix lysate, Kinobeads ε, ref Reinecke et al. (2023), read-out: KDapp): 224 nM
EC50 [5, 26]: 634 nM
pKDapp [5, 26]: 6.65
EC50 [6, 27]: 142 nM
pKDapp [6, 27]: 6.94
Kd ([6]; ERN1, 5 cell line mix lysate, Kinobeads ε, ref Reinecke et al. (2023), read-out: KDapp): 115 nM
EC50 [7, 28]: 46.5 nM
pKDapp [7, 28]: 7.62
Kd ([7]; SIK2, 5 cell line mix lysate, Kinobeads ε, ref Reinecke et al. (2023), read-out: KDapp): 24.1 nM
EC50 [8, 29]: 2270 nM
pKDapp [8, 29]: 5.70
Kd ([8]; PKN1, 5 cell line mix lysate, Kinobeads ε, ref Reinecke et al. (2023), read-out: KDapp): 1990 nM
EC50 [9, 30]: 328 nM
pKDapp [9, 30]: 6.66
Kd ([9]; AAK1, 5 cell line mix lysate, Kinobeads ε, ref Reinecke et al. (2023), read-out: KDapp): 220 nM
EC50 [10, 31]: 3550 nM
pKDapp [10, 31]: 5.55
Kd ([10]; LATS1, 5 cell line mix lysate, Kinobeads ε, ref Reinecke et al. (2023), read-out: KDapp): 2790 nM
EC50 [11, 32]: 259 nM
pKDapp [11, 32]: 6.72
Kd ([11]; PRKD3, 5 cell line mix lysate, Kinobeads ε, ref Reinecke et al. (2023), read-out: KDapp): 192 nM
EC50 [12, 33]: 95.2 nM
pKDapp [12, 33]: 7.31
Kd ([12]; PLK4, 5 cell line mix lysate, Kinobeads ε, ref Reinecke et al. (2023), read-out: KDapp): 48.5 nM
EC50 [14, 34]: 5.93 nM
pKDapp [14, 34]: 8.57
Kd ([14]; TNK2, 5 cell line mix lysate, Kinobeads ε, ref Reinecke et al. (2023), read-out: KDapp): 2.67 nM
EC50 [15, 35]: 310 nM
pKDapp [15, 35]: 6.55
Kd ([15]; STK10, 5 cell line mix lysate, Kinobeads ε, ref Reinecke et al. (2023), read-out: KDapp): 283 nM
EC50 [16, 36]: 361 nM
pKDapp [16, 36]: 6.62
Kd ([16]; PRKD2, 5 cell line mix lysate, Kinobeads ε, ref Reinecke et al. (2023), read-out: KDapp): 238 nM
EC50 [18, 37]: 70.5 nM
pKDapp [18, 37]: 7.24
Kd [18, 37]: 58.2 nM
Kd ([18]; Kinobeads, ref Klaeger et al, 2017a, Reinecke et al, 2023a): 70 nM
EC50 [19, 38]: 492 nM
pKDapp [19, 38]: 6.42
Kd ([19]; IRAK4, 5 cell line mix lysate, Kinobeads ε, ref Reinecke et al. (2023), read-out: KDapp): 381 nM
EC50 [20, 39]: 2080 nM
pKDapp [20, 39]: 5.89
Kd ([20]; RPS6KA4, 5 cell line mix lysate, Kinobeads ε, ref Reinecke et al. (2023), read-out: KDapp): 1290 nM
